According to US11339130B1 (Blade Therapeutics, Inc., priority 2016, dated 2022):

Columns and labels:
[1] = tested on: Calpain activity in SH-SY5Y cells; assay: SH-SY5Y + AMC fluorescence assay (Suc-LLVY-AMC substrate); format: cell-based; conditions: read-out: SH-SY5Y + AMC IC50
[2] = molecular target: T1, Human Calpain 2/NS1 (Homo sapiens, UniProt P17655); assay: Calpain inhibition continuous fluorescence (FRET) assay, Human Calpain 2/NS1; format: biochemical; conditions: read-out: Human Calpain 2/NS1 IC50
T1 sequence (P17655 1-700): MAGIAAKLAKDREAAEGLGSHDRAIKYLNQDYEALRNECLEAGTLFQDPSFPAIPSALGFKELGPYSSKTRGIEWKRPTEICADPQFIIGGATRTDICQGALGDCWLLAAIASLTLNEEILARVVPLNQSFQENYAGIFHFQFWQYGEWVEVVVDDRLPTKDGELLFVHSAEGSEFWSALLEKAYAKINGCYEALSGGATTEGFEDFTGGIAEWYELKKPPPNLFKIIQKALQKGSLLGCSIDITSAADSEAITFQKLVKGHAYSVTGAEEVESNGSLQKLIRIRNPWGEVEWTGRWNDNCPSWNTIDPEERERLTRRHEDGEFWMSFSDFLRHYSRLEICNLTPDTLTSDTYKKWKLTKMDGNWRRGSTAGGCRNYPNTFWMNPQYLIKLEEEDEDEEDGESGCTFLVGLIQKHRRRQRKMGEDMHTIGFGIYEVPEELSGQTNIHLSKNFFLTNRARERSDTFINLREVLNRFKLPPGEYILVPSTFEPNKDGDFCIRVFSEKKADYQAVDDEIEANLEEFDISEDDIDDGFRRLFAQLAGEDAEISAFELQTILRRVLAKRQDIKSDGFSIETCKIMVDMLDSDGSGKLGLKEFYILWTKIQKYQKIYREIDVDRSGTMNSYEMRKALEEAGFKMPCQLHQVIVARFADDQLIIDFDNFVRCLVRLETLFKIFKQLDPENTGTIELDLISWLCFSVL
T1 sequence (P04632 1-268 partner): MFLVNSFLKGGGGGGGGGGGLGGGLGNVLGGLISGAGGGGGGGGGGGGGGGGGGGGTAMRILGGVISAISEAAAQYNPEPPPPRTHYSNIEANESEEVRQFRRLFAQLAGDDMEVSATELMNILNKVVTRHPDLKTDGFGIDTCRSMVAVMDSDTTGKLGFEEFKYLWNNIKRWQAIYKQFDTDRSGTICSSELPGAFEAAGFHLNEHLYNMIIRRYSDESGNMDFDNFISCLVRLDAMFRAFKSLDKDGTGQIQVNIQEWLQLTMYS
Method in brief: (§1)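 Human calpains 1, 2 and 9 preincubated with inhibitor at 25 °C in 50 mM Tris pH 7.5, 100 mM NaCl, 1 mM DTT; reaction started with 5-FAM/QXL 520 FRET peptide plus CaCl2 for activation. Fluorescence (490/520 nm) followed 10 min; rates from 1-5 min slopes fitted to 4-parameter logistic for IC50.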

[3] = molecular target: T2, Human Calpain 1/NS1 (Homo sapiens, UniProt P07384); assay: Calpain inhibition continuous fluorescence (FRET) assay, Human Calpain 1/NS1; format: biochemical; conditions: read-out: Human Calpain 1/NS1 IC50
T2 sequence (P07384 1-714): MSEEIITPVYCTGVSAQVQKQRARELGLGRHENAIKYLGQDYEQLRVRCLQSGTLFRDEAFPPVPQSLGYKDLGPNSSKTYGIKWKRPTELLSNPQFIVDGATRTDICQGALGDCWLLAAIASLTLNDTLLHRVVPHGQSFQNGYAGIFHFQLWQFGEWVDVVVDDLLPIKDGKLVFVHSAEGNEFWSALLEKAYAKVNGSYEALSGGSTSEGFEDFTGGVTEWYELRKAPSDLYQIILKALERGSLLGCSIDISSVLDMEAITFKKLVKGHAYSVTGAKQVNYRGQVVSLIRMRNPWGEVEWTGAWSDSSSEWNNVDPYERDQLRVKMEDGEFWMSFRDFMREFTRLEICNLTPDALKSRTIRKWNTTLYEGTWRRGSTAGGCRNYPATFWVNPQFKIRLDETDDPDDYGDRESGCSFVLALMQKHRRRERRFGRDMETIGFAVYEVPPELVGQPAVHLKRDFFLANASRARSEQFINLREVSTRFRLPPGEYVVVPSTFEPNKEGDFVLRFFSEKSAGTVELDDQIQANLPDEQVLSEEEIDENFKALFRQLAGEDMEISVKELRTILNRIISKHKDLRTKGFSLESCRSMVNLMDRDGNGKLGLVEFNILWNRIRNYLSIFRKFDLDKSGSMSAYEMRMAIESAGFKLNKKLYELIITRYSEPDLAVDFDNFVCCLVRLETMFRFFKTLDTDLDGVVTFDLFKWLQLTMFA
T2 sequence (P04632 1-268 partner): T1 sequence (P04632 1-268 partner)
Method in brief: as §1

[4] = tested on: Calpain activity in SH-SY5Y cells (SBDP-150); assay: SH-SY5Y Spectrin western blot assay (SBDP-150 breakdown product, A23187-induced); format: cell-based; conditions: Homo sapiens; SH-SY5Y cells, A23187-induced SBDP-150, western blot; read-out: SH-SY5Y Spectrin IC50
[5] = molecular target: T3, Human Calpain 9/NS1 (Homo sapiens, UniProt O14815); assay: Calpain inhibition continuous fluorescence (FRET) assay, Human Calpain 9/NS1; format: biochemical; conditions: read-out: Human Calpain 9/NS1 IC50
T3 sequence (O14815 1-690): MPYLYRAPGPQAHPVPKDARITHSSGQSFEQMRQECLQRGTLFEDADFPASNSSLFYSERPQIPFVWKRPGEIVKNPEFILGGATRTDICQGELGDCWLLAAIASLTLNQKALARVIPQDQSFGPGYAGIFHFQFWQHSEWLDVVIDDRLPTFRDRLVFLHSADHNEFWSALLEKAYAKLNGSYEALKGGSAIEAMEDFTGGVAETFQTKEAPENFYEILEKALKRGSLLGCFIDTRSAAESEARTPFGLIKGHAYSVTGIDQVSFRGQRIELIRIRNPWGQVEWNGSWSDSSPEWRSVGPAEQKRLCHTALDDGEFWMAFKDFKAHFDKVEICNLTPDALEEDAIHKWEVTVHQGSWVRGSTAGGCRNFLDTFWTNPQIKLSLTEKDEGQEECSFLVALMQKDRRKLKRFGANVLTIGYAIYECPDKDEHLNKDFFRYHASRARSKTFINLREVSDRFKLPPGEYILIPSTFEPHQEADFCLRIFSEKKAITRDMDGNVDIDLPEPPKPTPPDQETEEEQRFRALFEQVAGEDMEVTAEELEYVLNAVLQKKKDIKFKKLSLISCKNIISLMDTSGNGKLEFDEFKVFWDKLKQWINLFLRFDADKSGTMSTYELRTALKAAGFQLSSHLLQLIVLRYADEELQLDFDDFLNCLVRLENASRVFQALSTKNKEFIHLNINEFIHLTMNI
T3 sequence (P04632 1-268 partner): T1 sequence (P04632 1-268 partner)
Method in brief: as §1

Row | Compound | IC50 [1] | IC50 [2] | IC50 [3] | IC50 [4] | IC50 [5]
1 | CC[C@@H](C)[C@H](NC(=O)c1oc(C)nc1-c1ccccc1)C(=O)C(N)=O [Compound 387, N-((3S,4R)-1-amino-4-methyl-1,2-dioxohexan-3-yl)-2-methyl-4-phenyloxazole-5-carboxamide] | > 25 µM | < 3 µM | < 3 µM | > 25 µM | < 3 µM
2 | Cc1cc(C)cc(C[C@H](NC(=O)c2oc(C)nc2-c2ccccc2)C(=O)C(N)=O)c1 [Compound 388, (S)—N-(4-amino-1-(3,5-dimethylphenyl)-3,4-dioxobutan-2-yl)-2-methyl-4-phenyloxazole-5-carboxamide] | 10 to 25 µM | < 3 µM | < 3 µM | < 10 µM | < 3 µM
3 | Cc1nc(-c2ccccc2)c(C(=O)N[C@@H](Cc2c[nH]c3ccccc23)C(=O)C(N)=O)o1 [Compound 389, (S)—N-(4-amino-1-(1H-indol-3-yl)-3,4-dioxobutan-2-yl)-2-methyl-4-phenyloxazole-5-carboxamide] | < 10 µM | < 3 µM | < 3 µM | < 10 µM | < 3 µM
4 | COc1cc(C(=O)NC(Cc2ccccc2)C(=O)C(N)=O)n(-c2ccccc2)n1 (stereo not shown) [Compound 392, N-(4-amino-3,4-dioxo-1-phenylbutan-2-yl)-3-methoxy-1-phenyl-1H-pyrazole-5-carboxamide] | < 10 µM | > 10 µM | > 10 µM | 10 to 25 µM | > 10 µM
5 | NC(=O)C(=O)C(Cc1ccccc1)NC(=O)c1oc(C2CC2)nc1-c1ccccc1 (stereo not shown) [Compound 393, N-(4-amino-3,4-dioxo-1-phenylbutan-2-yl)-2-cyclopropyl-4-phenyloxazole-5-carboxamide] | < 10 µM | < 3 µM | < 3 µM | 10 to 25 µM | < 3 µM

Other lines, results leading:

Row | IC50 [1] | IC50 [2] | IC50 [3] | IC50 [4] | IC50 [5] | Compound
6 | > 25 µM | < 3 µM | < 3 µM | > 25 µM | < 3 µM | NC(=O)C(=O)C(Cc1ccccc1)NC(=O)c1nc(C2CC2)oc1-c1ccccc1 (stereo not shown) [Compound 394, N-(4-amino-3,4-dioxo-1-phenylbutan-2-yl)-2-cyclopropyl-5-phenyloxazole-4-carboxamide]
7 | 10 to 25 µM | < 3 µM | < 3 µM | < 10 µM | < 3 µM | O=CC(Cc1ccccc1)NC(=O)c1cn(C(F)F)nc1-c1ccccc1 (stereo not shown) [Compound 396, 1-(difluoromethyl)-N-(1-oxo-3-phenylpropan-2-yl)-3-phenyl-1H-pyrazole-4-carboxamide]
8 | > 25 µM | < 3 µM | < 3 µM | < 10 µM | < 3 µM | O=CC(Cc1ccccc1)NC(=O)c1cnoc1-c1ccccc1 (stereo not shown) [Compound 397, N-(1-oxo-3-phenylpropan-2-yl)-5-phenylisoxazole-4-carboxamide]
9 | > 25 µM | < 3 µM | < 3 µM | > 25 µM | < 3 µM | Cc1cc(C(=O)NC(C=O)Cc2ccccc2)n(-c2ccccn2)n1 (stereo not shown) [Compound 398, 3-methyl-N-(1-oxo-3-phenylpropan-2-yl)-1-(pyridin-2-yl)-1H-pyrazole-5-carboxamide]
10 | > 25 µM | < 3 µM | < 3 µM | > 25 µM | 3 to 10 µM | Cc1cc(C(=O)NC(C=O)Cc2ccccc2)n(-c2ccc(C(F)(F)F)cn2)n1 (stereo not shown) [Compound 399, 3-methyl-N-(1-oxo-3-phenylpropan-2-yl)-1-(5-(trifluoromethyl)pyridin-2-yl)-1H-pyrazole-5-carboxamide]
11 | > 25 µM | < 3 µM | < 3 µM | > 25 µM | < 3 µM | Cc1cc(C(=O)NC(C=O)Cc2ccccc2)n(-c2cccc(COCc3ccccc3)c2)n1 (stereo not shown) [Compound 400, 1-(3-((benzyloxy)methyl)phenyl)-3-methyl-N-(1-oxo-3-phenylpropan-2-yl)-1H-pyrazole-5-carboxamide]
